Laboratory results published in patent US10538532B2, “Hepatitis B antiviral agents” (ENANTA PHARMACEUTICALS, INC., priority 2016, dated 2020).
Read-outs that look alike come from different tables or passages of the source.

Test system: HBV
Test: HepAD38 antiviral assay: reduction of viral product accumulation (virion DNA by qPCR, HBsAg or HBeAg by ELISA)
Format: cell-based, hepatitis B virus
Settings: Hepatitis B virus, HePAD38, 120 h, read-out: HepAD38 EC50
Outline: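 HepAD38 cells were washed free of tetracycline, plated at 35,000 cells/well and given compounds diluted 1:200 from DMSO. After 5 days, or 8 days with media and compound refreshed on d2 and d5, virion DNA was measured by qPCR and HBsAg or HBeAg by ELISA. EC50 is the concentration giving 50% reduction of viral product versus no-drug controls.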

[1] = HepAD38 cells, five days after compound addition, concentration reducing viral product accumulation by 50% relative to no drug controls

Row | Structure (SMILES) | EC50 [1] [µM] | EC50 [µM]
1 | O=C(Nc1cc(F)c(F)c(F)c1)c1ccc(Cl)c(S(=O)(=O)[C@H]2CC3CCC(C2)[C@@]3(O)Cn2cccn2)c1 [Example 261] | > 0.4 | –
2 | NC(=O)OCC1=C[C@@H]2CCC(C1)C2S(=O)(=O)c1cc(C(=O)Nc2cc(F)c(F)c(F)c2)ccc1Cl (stereo partly shown) [Example 262] | < 0.1 | –
3 | O=C(Nc1cc(F)c(F)c(F)c1)c1ccc(Cl)c(S(=O)(=O)[C@H]2C3CC[C@H]2C[C@]2(COS(=O)O2)C3)c1 (stereo partly shown) [Example 263] | < 0.1 | –
4 | O=C(Nc1cc(F)c(F)c(F)c1)c1ccc(Cl)c(S(=O)(=O)[C@H]2CC3CCC(C2)[C@]3(O)CNC(=O)[C@@H]2CCCN2)c1 [Example 264] | < 0.1 | –
5 | CC(C)[C@H](NC(=O)OC(C)(C)C)C(=O)OC[C@]1(O)CC2CC[C@@H](C1)[C@H]2S(=O)(=O)c1cc(C(=O)Nc2cc(F)c(F)c(F)c2)ccc1Cl [Example 265] | 0.1 to 0.4 | –
6 | O=C(Nc1cc(F)c(F)c(F)c1)c1ccc(Cl)c(S(=O)(=O)C2CC3CCC(C2)N3)c1 (stereo not shown) [Example 266] | – | 0.1 to 0.4
7 | CC[C@]1(O)CC2CC[C@@H](C1)[C@H]2S(=O)(=O)c1cc(C(=O)Nc2cc(F)c(F)c(F)c2)ccc1Cl [Example 268] | 0.1 to 0.4 | –
8 | O=C(Nc1cc(F)c(F)c(F)c1)c1ccc(Cl)c(S(=O)(=O)[C@H]2C3CC[C@H]2C[C@@]2(CO2)C3)c1 [Example 269] | < 0.1 | –
9 | C=CCOC[C@]1(O)CC2CC[C@@H](C1)[C@H]2S(=O)(=O)c1cc(C(=O)Nc2cc(F)c(F)c(F)c2)ccc1Cl [Example 270] | < 0.1 | –
10 | O=C(Nc1cc(F)c(F)c(F)c1)c1ccc(Cl)c(S(=O)(=O)[C@H]2C3CC[C@H]2C[C@H](Cn2cccn2)C3)c1 [Example 311] | < 0.1 | –
11 | O=C(Nc1cc(F)c(F)c(F)c1)c1ccc(Cl)c(S(=O)(=O)[C@H]2C3CC[C@H]2C[C@](O)(Cn2ccnc2)C3)c1 [Example 314] | < 0.1 | –
12 | COc1ccc(COC[C@]2(O)CC3CC[C@@H](C2)[C@H]3S(=O)(=O)c2cc(C(=O)Nc3cc(F)c(F)c(F)c3)ccc2Cl)cc1 [Example 315] | < 0.1 | –
13 | O=C(Nc1cc(F)c(F)c(F)c1)c1ccc(Cl)c(S(=O)(=O)[C@H]2C3CC[C@H]2C[C@](O)(COCc2ccncc2)C3)c1 [Example 316] | 0.1 to 0.4 | –
14 | CNC(=O)OC[C@@H]1CC2CC[C@@H](C1)[C@H]2S(=O)(=O)c1cc(C(=O)Nc2cc(F)c(F)c(F)c2)ccc1Cl [Example 318] | < 0.1 | –
15 | O=C(Nc1cc(F)c(F)c(F)c1)c1ccc(Cl)c(S(=O)(=O)[C@H]2C3CC[C@H]2C[C@](O)(COC/C=N/O)C3)c1 [Example 320] | < 0.1 | –
16 | O=C(Nc1cc(F)c(F)c(F)c1)c1ccc(Cl)c(S(=O)(=O)[C@H]2CC3CCC(C2)[C@]3(O)c2ccc(F)cn2)c1 [Example 323] | < 0.1 | –
17 | O=C(Nc1cc(F)c(F)c(F)c1)c1ccc(Cl)c(S(=O)(=O)[C@H]2C3CC[C@H]2C[C@](O)(COCCN2CCOCC2)C3)c1 [Example 325] | < 0.1 | –
18 | O=C(Nc1cc(F)c(F)c(F)c1)c1ccc(Cl)c(S(=O)(=O)[C@H]2C3CC[C@H]2C[C@](O)(COC/C=C/c2ccncc2)C3)c1 [Example 326] | > 0.4 | –
19 | O=C(Nc1cc(F)c(F)c(F)c1)c1ccc(Cl)c(S(=O)(=O)[C@H]2C3CC[C@H]2C[C@](O)(COCC(O)CO)C3)c1 (stereo partly shown) [Example 327] | 0.1 to 0.4 | –
20 | O=C(Nc1cc(F)c(F)c(F)c1)c1ccc(Cl)c(S(=O)(=O)[C@H]2C3CC[C@H]2C[C@](O)(COCC2CO2)C3)c1 (stereo partly shown) [Example 328] | < 0.1 | –
21 | O=C(Nc1cc(F)c(F)c(-n2cccn2)c1)c1ccc(Cl)c(S(=O)(=O)[C@H]2C3CC[C@H]2C[C@](O)(Cn2cccn2)C3)c1 [Example 333] | > 0.4 | –
22 | COC(=O)NC[C@@H]1CC2CC[C@@H](C1)[C@H]2S(=O)(=O)c1cc(C(=O)Nc2cc(F)c(F)c(F)c2)ccc1Cl [Example 334] | < 0.1 | –

Row | Structure (SMILES) | EC50 [1] [µM] | EC50 [µM]
23 | COC(=O)N(C)C[C@@H]1CC2CC[C@@H](C1)[C@H]2S(=O)(=O)c1cc(C(=O)Nc2cc(F)c(F)c(F)c2)ccc1Cl [Example 335] | < 0.1 | –
24 | O=C(Nc1cc(F)c(F)c(F)c1)c1ccc(Cl)c(S(=O)(=O)[C@H]2CC3CCC(C2)[C@]3(O)CN2CCOCC2)c1 [Example 336] | < 0.1 | –
25 | O=C(Nc1cc(F)c(F)c(F)c1)c1ccc(Cl)c(S(=O)(=O)[C@H]2C3CCC2C[C@H](CN2CCOCC2)C3)c1 [Example 337] | 0.1 to 0.4 | –
26 | O=C(Nc1cc(F)c(F)c(F)c1)c1ccc(Cl)c(S(=O)(=O)[C@H]2C3CC[C@H]2C[C@]2(C3)OC(=O)[C@@H](O)[C@@H]2O)c1 [Example 338] | > 0.4 | –
27 | COC(=O)[C@@H](NC[C@]1(O)C2CCC1C[C@@H](S(=O)(=O)c1cc(C(=O)Nc3cc(F)c(F)c(F)c3)ccc1Cl)C2)C(C)C [Example 339] | > 0.4 | –
28 | CCOC(=O)[C@@H](NC[C@]1(O)C2CCC1C[C@@H](S(=O)(=O)c1cc(C(=O)Nc3cc(F)c(F)c(F)c3)ccc1Cl)C2)C(C)C [Example 340] | > 0.4 | –
29 | CC(CO)NC[C@]1(O)C2CCC1C[C@@H](S(=O)(=O)c1cc(C(=O)Nc3cc(F)c(F)c(F)c3)ccc1Cl)C2 (stereo partly shown) [Example 341] | 0.1 to 0.4 | –
30 | CC(O)CNC[C@]1(O)C2CCC1C[C@@H](S(=O)(=O)c1cc(C(=O)Nc3cc(F)c(F)c(F)c3)ccc1Cl)C2 (stereo partly shown) [Example 342] | < 0.1 | –
31 | O=C(Nc1cc(F)c(F)c(F)c1)c1ccc(Cl)c(S(=O)(=O)[C@H]2CC3CCC(C2)[C@]3(O)C[N+]2([O-])C[C@@H](O)[C@H](O)C2)c1 [Example 343] | 0.1 to 0.4 | –
32 | CC(C)[C@H](NC[C@]1(O)C2CCC1C[C@@H](S(=O)(=O)c1cc(C(=O)Nc3cc(F)c(F)c(F)c3)ccc1Cl)C2)C(=O)O [Example 344] | > 0.4 | –
33 | CC(=O)NC[C@]1(O)C2CCC1C[C@@H](S(=O)(=O)c1cc(C(=O)Nc3cc(F)c(F)c(F)c3)ccc1Cl)C2 [Example 345] | < 0.1 | –
34 | CC(=O)N1C[C@]2(OC1(C)C)C1CCC2C[C@@H](S(=O)(=O)c2cc(C(=O)Nc3cc(F)c(F)c(F)c3)ccc2Cl)C1 [Example 346] | < 0.1 | –
35 | NC[C@]1(O)C2CCC1C[C@@H](S(=O)(=O)c1cc(C(=O)Nc3cc(F)c(F)c(F)c3)ccc1Cl)C2 [Example 347] | 0.1 to 0.4 | –
36 | CC(C)(C)OC(=O)NCC(=O)NC[C@]1(O)C2CCC1C[C@@H](S(=O)(=O)c1cc(C(=O)Nc3cc(F)c(F)c(F)c3)ccc1Cl)C2 [Example 348] | < 0.1 | –
37 | C[C@H](NC(=O)OC(C)(C)C)C(=O)NC[C@]1(O)C2CCC1C[C@@H](S(=O)(=O)c1cc(C(=O)Nc3cc(F)c(F)c(F)c3)ccc1Cl)C2 [Example 349] | < 0.1 | –
38 | NCC(=O)NC[C@]1(O)C2CCC1C[C@@H](S(=O)(=O)c1cc(C(=O)Nc3cc(F)c(F)c(F)c3)ccc1Cl)C2 [Example 350] | 0.1 to 0.4 | –
39 | C[C@H](N)C(=O)NC[C@]1(O)C2CCC1C[C@@H](S(=O)(=O)c1cc(C(=O)Nc3cc(F)c(F)c(F)c3)ccc1Cl)C2 [Example 351] | 0.1 to 0.4 | –
40 | O=C(Nc1cc(F)c(F)c(F)c1)c1ccc(Cl)c(S(=O)(=O)[C@H]2CC3CCC(C2)[C@]3(O)C(O)CO)c1 (stereo partly shown) [Example 352] | < 0.1 | –
41 | NC(=O)O[C@]1(c2cccnc2)C2CCC1C[C@H](S(=O)(=O)c1cc(C(=O)Nc3cc(F)c(F)c(F)c3)ccc1Cl)C2 [Example 353] | < 0.1 | –
42 | O=C(Nc1ccc(F)c(F)c1)c1ccc(Cl)c(S(=O)(=O)[C@H]2CC3CCC(C2)[C@H]3O)c1 [Example 354] | 0.1 to 0.4 | –
43 | O=C(Nc1cc(F)c(F)c(F)c1)c1ccc(Cl)c(S(=O)(=O)C2C[C@@H]3O[C@H](C2)[C@@H](O)[C@H]3O)c1 (stereo partly shown) [Example 355] | > 0.4 | –
